For series [1], the system named is Neonatal rat ventricular myocytes (NRVM) expressing 2157del2 JUP. The experiment in a line: Immunofluorescence of junction proteins in ACM in vitro model. The note with it: for ACM disease features/readouts overall, EET and EEZE / ACM disease features overall (plakoglobin, Cx43, pRelA/p65, TUNEL), sEH inhibitors: Jup2157del2 myocytes; for ACM disease features/readouts overall, EET and EEZE: 10 μM; for Loss of cell surface signal for Cx43 / Redistribution of junctional plakoglobin to intracellular/nuclear sites: 500 nM 2.017 or 1 μM 1.045, 24 hours; for ACM disease features overall (plakoglobin, Cx43, pRelA/p65, TUNEL), sEH inhibitors: 2.017 500 nM, 1.045 1 μM, concentration not given for 1,002 and 3.023. The format is cell-based. As to the method: Neonatal rat ventricular myocytes (NRVM) were isolated from the ventricles of 1-day-old Wistar rat pups and plated on collagen-coated plastic chambers. 24 hours following seeding, the cells were transfected with an adenoviral construct expressing a mutant form of plakoglobin known to cause arrhythmogenic cardiomyopathy in patients (2157del2 JUP). […] Non-transfected cultures and cultures transfected with the adenoviral construct only served as negative and positive controls, respectively.
(§1) Immunofluorescence: Cell cultures were fixed with 4% paraformaldehyde and prepared for immunofluorescence analysis as previously described (1). […] Cy3-conjugated goat anti-mouse and anti-rabbit antibodies (Jackson Immunolabs) were used as secondary antibodies and DAPI was used to visualize the nuclei. Immunostained preparations were visualized by confocal microscopy and changes in spatial distribution of signal were assessed qualitatively.

For series [2], the target named is T1, soluble epoxide hydrolase (sEH) (Homo sapiens, UniProt P34913).
T1 sequence (P34913 1-555): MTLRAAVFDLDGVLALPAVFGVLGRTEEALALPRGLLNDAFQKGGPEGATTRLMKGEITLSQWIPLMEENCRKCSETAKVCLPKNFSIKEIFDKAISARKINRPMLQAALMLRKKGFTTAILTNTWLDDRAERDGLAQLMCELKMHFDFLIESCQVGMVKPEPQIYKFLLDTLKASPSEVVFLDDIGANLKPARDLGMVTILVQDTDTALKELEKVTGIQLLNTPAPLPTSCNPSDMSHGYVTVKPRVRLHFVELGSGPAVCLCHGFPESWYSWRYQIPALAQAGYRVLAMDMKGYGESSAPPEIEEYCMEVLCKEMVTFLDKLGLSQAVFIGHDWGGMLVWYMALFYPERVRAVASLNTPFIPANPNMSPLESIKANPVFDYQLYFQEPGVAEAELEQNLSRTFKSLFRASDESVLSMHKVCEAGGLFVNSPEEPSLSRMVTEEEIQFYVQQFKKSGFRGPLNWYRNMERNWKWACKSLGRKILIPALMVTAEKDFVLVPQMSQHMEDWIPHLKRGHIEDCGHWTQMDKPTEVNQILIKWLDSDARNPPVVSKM
In words: Human in vitro Ki and dissociation t1/2 from the enzyme (fluorescence signals). The note with it: for Human In vitro t1/2 (time for half of the drug being dissociated from the enzyme): based on fluorescence signals. In kind it is binding.

For series [3], the system named is Neonatal rat ventricular myocytes (NRVM) expressing 2157del2 JUP. The experiment in a line: TUNEL apoptosis assay in ACM in vitro model. In kind it is cell-based. The note with it: 500 nM 2.017 or 1 μM 1.045, 24 hours. As for the experimental part:
(§2) Neonatal rat ventricular myocytes (NRVM) were isolated from the ventricles of 1-day-old Wistar rat pups and plated on collagen-coated plastic chambers. 24 hours following seeding, the cells were transfected with an adenoviral construct expressing a mutant form of plakoglobin known to cause arrhythmogenic cardiomyopathy in patients (2157del2 JUP). 24 hours following transfection, the cells were treated with 500 nM 2.017 or 1 μM 1.045 for an additional 24 hours. Non-transfected cultures and cultures transfected with the adenoviral construct only served as negative and positive controls, respectively.
Apoptosis assay: Terminal deoxynucleotidyl transferase dUTP nick end labelling (TUNEL) was performed on NRVM cultures following the manufacturer's instructions (Millipore, S7110). DNA strand breaks generated in apoptotic cells were labelled with fluorescein (green) and nuclei were visualized with DAPI. The number of TUNEL-positive nuclei was counted in 5 randomly selected high-power fields in each culture well and expressed as a percent of total nuclei visualized with DAPI.

Another series has as its system NFκB. The experiment in a line: Nuclear pRelA/p65 immunofluorescence (NFκB activation) in ACM in vitro model. The note with it: 500 nM 2.017 or 1 μM 1.045, 24 hours. The format is cell-based, rat. As to the method:
as §2, §1

A short description of the next series: Experimental LogP. The format is physicochemical.
Series [4] in a line: Mouse PK, single oral gavage. The note with it: mouse, in vivo, po, 0.3 mg/kg, single dose 0.3 mg/kg; for AUC: Mouse AUC, 20% PEG400 in oleic acid-rich triglyceride.
A short description of series [5]: Rat PK, single oral gavage. In kind it is in vivo. The note with it: single dose 0.1 mg/kg.
A further series deals with Dsg2^mut/mut mice. In words: LV function in Dsg2mut/mut mice. In kind it is in vivo, mouse. The note with it: 3 mg/kg/day for 20 days, vs. untreated mice.
A further series in a line: Solubility in buffer. The format is physicochemical. The note with it: aqueous buffer; Sodium Phosphate Buffer at pH 7.4.

We go through 11 compounds from US20240024302A1, “SOLUBLE EPOXIDE HYDROLASE (sEH) INHIBITORS AND DUAL COX/sEH INHIBITORS FOR THE TREATMENT OF ARRHYTHMOGENIC CARDIOMYOPATHY” (BETH ISRAEL DEACONESS MEDICAL CENTER, INC., priority 2020, published 2024).

Each structure is given as a SMILES string. ≈ marks a conversion by molar mass, not a printed value. Entries after “also recorded” stand apart in the source; their conditions may differ.

As for `CCCCCC1OC1CCCCCCC/C=C\CCCC(=O)O` (stereo not drawn) [14,15-EE-5(Z)E, reference compound], the “ACM disease features/readouts overall, EET and EEZE” value in series [1] is reported as “intensified ACM disease readouts; also recorded: intensifies these ACM disease features; also recorded: intensified these ACM features”.
In the case of `CCCCCC1OC1C/C=C\C/C=C\C/C=C\CCCC(=O)O` (stereo not drawn) [14,15-EET, reference compound], the “ACM disease features/readouts overall, EET and EEZE” value in series [1] was “produced potent salutary effects; also recorded: reversed”.
As to `CC[C@H](C)C(=O)N1CCC(NC(=O)Nc2ccc(C(F)(F)F)nc2)CC1`, the “Human In vitro t1/2 (time for half of the drug being dissociated from the enzyme)” value in series [2] came to 0.0617 h.
Take `NS(=O)(=O)c1ccc(-n2nc(CCCNC(=O)Nc3ccc(C(F)(F)F)cc3)cc2-c2ccccc2)cc1` [Compound 2.017]: in [1], the “Loss of cell surface signal for Cx43” value is on record as “reduced loss of cell surface signal for Cx43”; the “Redistribution of junctional plakoglobin to intracellular/nuclear sites” value is on record as “prevented redistribution of junctional plakoglobin; also recorded: prevented translocation of junctional plakoglobin”; the “ACM disease features overall (plakoglobin, Cx43, pRelA/p65, TUNEL), sEH inhibitors” value (from here on “ACM disease features overall … sEH inhibitors”) is recorded as “reversed”. Moreover, the “Myocyte apoptosis (TUNEL+ nuclei)” value in series [3] is listed as “greatly diminished myocyte apoptosis”. For the same compound, the “Activation of NFκB (nuclear signal for pRelA/p65)” value in the series with NFκB was “prevented activation of NFκB; also recorded: blocked activation of NFκB”.
As for `CC[C@H](C)C(=O)N1CCC(NC(=O)Nc2ccc(OC(F)(F)F)c(F)c2)CC1` [drawing 88], in the series “Experimental LogP”, the “Exp. LogP” value turned out to be 5.98. The AUC (in general, concentration integrated over time) in series [4] (oral gavage) was determined as 0.0998 ± 0.0001 µM·h. The peak level in series [4] (Mouse Cmax, oral gavage) (Cmax) was 737 nM. Besides, the half-life in [4] (Mouse T1/2, oral gavage) is 117 h. Further, the Tmax (commonly the time at which the peak concentration occurs) in series [4] (Mouse Tmax, oral gavage) was found to be 1.6 h. For the same compound, in series [5], the Cmax (as a rule, the peak of the concentration-time curve) was 42 ± 6 nM; the “Rat T1/2” value was determined as 1.6 ± 0.2 h; the “Rat Tmax” value is reported as 1.8 ± 0.1 h. The “Rat AUC” value in [5] (PEG 300) amounted to 0.208 ± 0.025 µM·h.
With `CC[C@H](C)C(=O)N1CCC(NC(=O)Nc2ccc(OC(F)(F)F)c(F)c2)CC1` [Compound 1.002], in [1], the “ACM disease features overall … sEH inhibitors” value is “showed similar results”.
For the compound `CC[C@H](C)C(=O)N1CCC(NC(=O)Nc2ccc(OC(F)(F)F)c(Cl)c2)CC1`, the “Human In vitro t1/2 (time for half of the drug being dissociated from the enzyme)” value in series [2] amounted to 0.167 h. Further, the AUC in series [4] (oral gavage) was at least 0.0999 µM·h. Further, in series [5] (rat, in vivo), the concentration peaked (Cmax) at 42 ± 6 nM and the Tmax worked out at 2.1 ± 0.3 h. The compound also gave an AUC in series [5] (rat, in vivo, PEG 300) of 0.241 ± 0.012 µM·h. The half-life in series [5] (rat, in vivo, read-out: Rat T1/2 (converted)) is 2.9 ± 0.5 h.
Turning to `O=C(Nc1ccc(C(F)(F)F)c(F)c1)NC1CCN(C(=O)[C@@H]2CCOC2)CC1` (stereo in doubt), the “Exp. LogP” value in “Experimental LogP” was 3.41.
As for `CCC(=O)N1CCC(NC(=O)Nc2ccc(OC(F)(F)F)cc2)CC1` [Compound 1.045], in the series on Dsg2^mut/mut mice, the LV function result was “marked recovery of LV function; also recorded: recovered LV function”. In addition, in series [1], the “Loss of cell surface signal for Cx43” value is given as “reduced loss of cell surface signal for Cx43”; the “Redistribution of junctional plakoglobin to intracellular/nuclear sites” value was “prevented redistribution of junctional plakoglobin; also recorded: prevented translocation of junctional plakoglobin”; the “ACM disease features overall … sEH inhibitors” value is recorded as “reversed”. Besides, the “Myocyte apoptosis (TUNEL+ nuclei)” value in series [3] is “greatly diminished myocyte apoptosis”. The “Activation of NFκB (nuclear signal for pRelA/p65)” value in the series on NFκB was “prevented activation of NFκB; also recorded: blocked activation of NFκB”.
Take `O=C(Nc1ccc(OC(F)(F)F)cc1)N[C@H]1CC[C@H](Oc2ccc(C(=O)O)cc2)CC1` [Compound 3.023]: the “ACM disease features overall … sEH inhibitors” value in series [1] is on record as “showed similar results”.
Regarding `CC[C@H](C)C(=O)N1CCC(CC(=O)Nc2ccc(OC(F)(F)F)cc2F)CC1`, in [2], the affinity, expressed as Ki, was 4.72 nM and the “Human In vitro t1/2 (time for half of the drug being dissociated from the enzyme)” value came to 0.0783 h. In addition, the solubility (in general, the dissolved amount per volume that the medium holds) in “Solubility in buffer” came to 2.6 µg/mL (≈ 6.43 µM). In addition, in “Experimental LogP” (read-out: Exp. LogP), the logP (usually the decadic logarithm of the partition coefficient of the neutral form, usually between octanol and water) came out at 6.
